The source of these data is article PMC10893082, “Development and Optimization of Andrographis paniculata Extract-Loaded Self-Microemulsifying Drug Delivery System Using Experimental Design Model” (Pharmaceutics, 2024).

One data set is described as follows: physchem. The format is physicochemical. On the procedure:
To find the solubility of AGP in the optimized SMEDDS (highest amount of AGP that can be loaded into the optimized SMEDDS), an excess amount of A. paniculata extract was added to the 1.5 mL of the optimized SMEDDS and shaken at 37 °C 120 rpm for 72 h in an incubator shaker. Then, the AGPE-loaded optimized SMEDDS was centrifuged at 14,000 rpm for 30 min to separate the extract powder from the AGP-extracted SMEDDS. The supernatant was collected and diluted with methanol before the analysis of AGP content using HPLC. HPLC analysis with UV detection was used to quantify the content of AGP. An Agilent® 1200 (Santa Clara, CA, USA) with an Agilent® ZORBAX Eclipse XDB-C18 (4.6 × 150 mm, 5 µm) column was used. The mobile phase was methanol:water (65:35), and the injection volume was 20 µL. The flow rate was set at 0.8 mL/min, and the detection wavelength was 228 nm. The standard curve of AGP was constructed, ranging from 5 to 200 µg/mL.

Another data set relates to SARS-CoV-2. Also noted: method as in ref 6, Sa-ngiamsuntorn et al., (2021). To be noted: Sa-ngiamsuntorn et al., (2021); cited from earlier work.
On the set-up of data set [1]: method as in ref 53, Kim et al., (2019). To be noted: Kim et al., (2019), cited from earlier work.

≈ marks a conversion by molar mass, not a printed value. Bounds are passed on as bounds.

`C=C1CC[C@@H]2[C@](C)(CO)[C@H](O)CC[C@@]2(C)[C@@H]1C/C=C1/C(=O)OC[C@H]1O` [AGP, andrographolide] gave a solubility in “physchem” of roughly 42 mg/mL (≈ 120 mM). The same molecule had a solubility at 72 h in “physchem” (37 °C, thermodynamic from solid) of roughly 38 mg/mL (≈ 108 mM). Besides, the “anti-SARS-CoV-2 activity, IC50” value in the data set with SARS-CoV-2 is listed as “equivalent to the antiviral agent remdesivir”.

Consider `CN(Cc1cnc2nc(N)nc(N)c2n1)c1ccc(C(=O)N[C@@H](CCC(=O)O)C(=O)O)cc1` [methotrexate], for which, in data set [1] (SMEDDS formulation), the “Time within which dissolution was completed” value is on record as no more than 20 min. Besides, the Drug powder dissolved in data set [1] (drug powder, after 60 min) is recorded as 53%.

As usually defined, the solubility is the concentration that dissolves in the medium under given conditions. Read a low solubility as a poorly soluble substance.
